Several values for one entry are separate records, joined by “and”; a condition that tells them apart may be missing. Equal entries are not always repeated.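 Values below derive from 48-hour exposures of cells grown in 96-well plates, with endpoints linearly interpolated between the two concentrations bracketing the appropriate inhibition level. Definition used: TGI = concentration required for complete inhibition of growth.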
These compounds were tested on MDA-N (assay: DTP human tumour cell line panel, 48 h).

First: CCC1=C(c2ccc(OC)cc2)CC[C@]2(CCNC2=O)[C@@H]1C
Second: COc1cc2c(cc1OC)C(SC)C(=O)N(Cc1cccc(OC)c1OC)CC2 (centres undefined)
The TGI of the first is 38-fold higher: 58.3 µM for the first, 1.53 µM for the second.

Compared with CCOC(=O)n1c2ccccc2c(=O)n1CCO, O=c1c2ccccc2n2cnc3ccc(NCCNCCO)c1c32 is lower in TGI: greater than 100 µM for the first, 9.61 µM for the second.

O=C(O)Cn1ccc(=O)c2c([N+](=O)[O-])cccc21 and Cc1cc2c(cc1C)[n+](=O)c(C(=O)/C=C/c1ccccc1[N+](=O)[O-])c(C)n2[O-] cannot be ordered by TGI: greater than 100 µM for the first, greater than 100 µM for the second.

Going from NCC(Cc1ccccc1)P(=O)(O)O (centres undefined) to C=CC(C)(O)CCC1C(=C)C(O)CC2C(C)(C)CCCC12C (centres undefined), the TGI falls from greater than 100 µM to 34.6 µM.

In the case of N=C(N)c1ccc(OCCCCCOc2ccc(C(=N)N)cc2)cc1, the TGI is reported as 26.5 µM and 36 µM.
